Experiments:
[1] = Experimental log P, shake-flask method; format: physicochemical; details: n-octanol/phosphate buffer pH 7.4, read-out: Exp. Log P
Procedure, shortened: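 Shake-flask partitioning between n-octanol and phosphate buffer pH 7.4, shaken 50 min, then centrifuged 35 min at 2500 rpm. Buffer-phase absorbance at each compound's λmax measured before and after partitioning. P calculated from absorbance drop and phase volume ratio.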

PC-3 = assay: NCI cytotoxicity screen, Prostate Cancer panel; format: cell-based, human; details: Homo sapiens, single dose 10 µM, negative = lethal, read-out: Percent growth inhibition
Description: (§1) Cytotoxicity was performed at National Cancer Institute (NCI), Bethesda, USA as per their protocols.

DU-145 = assay: NCI cytotoxicity screen, Prostate Cancer panel; format: cell-based, human; details: Homo sapiens, single dose 10 µM, negative = lethal, read-out: Percent growth inhibition
Description: as §1

MALME-3M = assay: NCI cytotoxicity screen, Melanoma panel; format: cell-based; details: Homo sapiens; MALME-3M; single dose 10 µM; negative = lethal; read-out: Percent growth inhibition
Description: as §1

MDA-MB-435 = assay: NCI cytotoxicity screen, Melanoma panel; format: cell-based; details: Homo sapiens, MDA-MB-435, read-out: Percent growth inhibition
Description: as §1

UACC-257 = assay: NCI cytotoxicity screen, Melanoma panel; format: cell-based; details: Homo sapiens, single dose 10 µM, negative = lethal, read-out: Percent growth inhibition
Description: as §1

SK-MEL-5 = assay: NCI cytotoxicity screen, Melanoma panel; format: cell-based; details: Homo sapiens, single dose 10 µM, negative = lethal, read-out: Percent growth inhibition
Description: as §1

SK-MEL-28 = assay: NCI cytotoxicity screen, Melanoma panel; format: cell-based; details: Homo sapiens, single dose 10 µM, negative = lethal, read-out: Percent growth inhibition
Description: as §1

COLO 205 = assay: NCI cytotoxicity screen, Colon Cancer panel; format: cell-based; details: Homo sapiens, single dose 10 µM, negative = lethal, read-out: Percent growth inhibition
Description: as §1

HT29 = assay: NCI cytotoxicity screen, Colon Cancer panel; format: cell-based; details: Homo sapiens, HT-29; HT29; single dose 10 µM; negative = lethal; read-out: Percent growth inhibition
Description: as §1

HCT-15 = assay: NCI cytotoxicity screen, Colon Cancer panel; format: cell-based; details: Homo sapiens, single dose 10 µM, negative = lethal, read-out: Percent growth inhibition
Description: as §1

HCT-116 = assay: NCI cytotoxicity screen, Colon Cancer panel; format: cell-based; details: Homo sapiens, single dose 10 µM, negative = lethal, read-out: Percent growth inhibition
Description: as §1

NCI-H460 = assay: NCI cytotoxicity screen, Non-Small Cell Lung Cancer panel; format: cell-based; details: Homo sapiens, single dose 10 µM, negative = lethal, read-out: Percent growth inhibition
Description: as §1

A549/ATCC = assay: as above; format: cell-based; details: Homo sapiens; A549/ATCC; single dose 10 µM; negative = lethal; read-out: Percent growth inhibition
Description: as §1

HOP-62 = assay: as above; format: cell-based; details: Homo sapiens, single dose 10 µM, negative = lethal, read-out: Percent growth inhibition
Description: as §1

EXVX = assay: as above; format: cell-based; details: Homo sapiens; EXVX; single dose 10 µM; negative = lethal; read-out: Percent growth inhibition
Description: as §1

OVCAR-3 = assay: NCI cytotoxicity screen, Ovarian Cancer panel; format: cell-based, human; details: Homo sapiens; OVCAR-3; single dose 10 µM; negative = lethal; read-out: Percent growth inhibition
Description: as §1

OVCAR-8 = assay: NCI cytotoxicity screen, Ovarian Cancer panel; format: cell-based; details: Homo sapiens, single dose 10 µM, negative = lethal, read-out: Percent growth inhibition
Description: as §1

OVCAR-5 = assay: NCI cytotoxicity screen, Ovarian Cancer panel; format: cell-based; details: Homo sapiens, single dose 10 µM, negative = lethal, read-out: Percent growth inhibition
Description: as §1

IGROV1 = assay: NCI cytotoxicity screen, Ovarian Cancer panel; format: cell-based; details: Homo sapiens, IGROV-1, single dose 10 µM, negative = lethal, read-out: Percent growth inhibition
Description: as §1

OVCAR-4 = assay: NCI cytotoxicity screen, Ovarian Cancer panel; format: cell-based; details: Homo sapiens; OVCAR-4; single dose 10 µM; negative = lethal; read-out: Percent growth inhibition
Description: as §1

NCI/ADR-RES = assay: NCI cytotoxicity screen, Ovarian Cancer panel; format: cell-based; details: Homo sapiens, single dose 10 µM, negative = lethal, read-out: Percent growth inhibition
Description: as §1

SK-OV-3 = assay: NCI cytotoxicity screen, Ovarian Cancer panel; format: cell-based; details: Homo sapiens, single dose 10 µM, negative = lethal, read-out: Percent growth inhibition
Description: as §1

CAKI-1 = assay: NCI cytotoxicity screen, Renal Cancer panel; format: cell-based; details: Homo sapiens; CAKI-1; single dose 10 µM; negative = lethal; read-out: Percent growth inhibition
Description: as §1

A498 = assay: NCI cytotoxicity screen, Renal Cancer panel; format: cell-based; details: Homo sapiens, single dose 10 µM, negative = lethal, read-out: Percent growth inhibition
Description: as §1

SN12C = assay: NCI cytotoxicity screen, Renal Cancer panel; format: cell-based; details: Homo sapiens, single dose 10 µM, negative = lethal, read-out: Percent growth inhibition
Description: as §1

RXF 393 = assay: NCI cytotoxicity screen, Renal Cancer panel; format: cell-based; details: Homo sapiens, single dose 10 µM, negative = lethal, read-out: Percent growth inhibition
Description: as §1

UO-31 = assay: NCI cytotoxicity screen, Renal Cancer panel; format: cell-based; details: Homo sapiens, single dose 10 µM, negative = lethal, read-out: Percent growth inhibition
Description: as §1

ACHN = assay: NCI cytotoxicity screen, Renal Cancer panel; format: cell-based; details: Homo sapiens, single dose 10 µM, negative = lethal, read-out: Percent growth inhibition
Description: as §1

HS 578 T = assay: NCI cytotoxicity screen, Breast Cancer panel; format: cell-based; details: Homo sapiens; HS 578T; single dose 10 µM; negative = lethal; read-out: Percent growth inhibition
Description: as §1

T-47D = assay: NCI cytotoxicity screen, Breast Cancer panel; format: cell-based; details: Homo sapiens, T47D, T-47D; single dose 10 µM; negative = lethal; read-out: Percent growth inhibition
Description: as §1

MCF7 = assay: NCI cytotoxicity screen, Breast Cancer panel; format: cell-based; details: Homo sapiens, single dose 10 µM, negative = lethal, read-out: Percent growth inhibition
Description: as §1

MDA-MB-468 = assay: NCI cytotoxicity screen, Breast Cancer panel; format: cell-based; details: Homo sapiens, single dose 10 µM, negative = lethal, read-out: Percent growth inhibition
Description: as §1

BT-549 = assay: NCI cytotoxicity screen, Breast Cancer panel; format: cell-based; details: Homo sapiens, single dose 10 µM, negative = lethal, read-out: Percent growth inhibition
Description: as §1

MDA-MB-231/ATCC = assay: NCI cytotoxicity screen, Breast Cancer panel; format: cell-based; details: Homo sapiens, MDA-MB-231, read-out: Percent growth inhibition
Description: as §1

NCI-H226 = assay: NCI cytotoxicity screen, Non-Small Cell Lung Cancer panel; format: cell-based, human; details: Homo sapiens, single dose 10 µM, negative = lethal, read-out: Percent growth inhibition
Description: as §1

NCI-H23 = assay: as above; format: cell-based, human; details: Homo sapiens, single dose 10 µM, negative = lethal, read-out: Percent growth inhibition
Description: as §1

NCI-522 = assay: as above; format: cell-based, human; details: Homo sapiens; NCI-522; single dose 10 µM; negative = lethal; read-out: Percent growth inhibition
Description: as §1

NCI-H322M = assay: as above; format: cell-based, human; details: Homo sapiens, single dose 10 µM, negative = lethal, read-out: Percent growth inhibition
Description: as §1

M14 = assay: NCI cytotoxicity screen, Melanoma panel; format: cell-based, human; details: Homo sapiens, single dose 10 µM, negative = lethal, read-out: Percent growth inhibition
Description: as §1

LOX IMVI = assay: NCI cytotoxicity screen, Melanoma panel; format: cell-based, human; details: Homo sapiens, single dose 10 µM, negative = lethal, read-out: Percent growth inhibition
Description: as §1

UACC-62 = assay: NCI cytotoxicity screen, Melanoma panel; format: cell-based, human; details: Homo sapiens, single dose 10 µM, negative = lethal, read-out: Percent growth inhibition
Description: as §1

SMILES: c1cn2cc(-c3ccc4c(c3)ncn4C3CCCCC3)nc(-c3ccc4c(c3)ncn4C3CCCCC3)c2n1 [Compound 30, 6,8-bis(1-cyclohexyl-1H-benzo[d]imidazol-5-yl)imidazo[1,2-a]pyrazine]
- logP [1]: 2.16
- inhibition at 10 µM (PC-3): 27.9%
- inhibition at 10 µM (DU-145): 6.22%
- inhibition at 10 µM (MALME-3M): 8.16%
- inhibition at 10 µM (MDA-MB-435): < 1%
- inhibition at 10 µM (UACC-257): 5.79%
- inhibition at 10 µM (SK-MEL-5): 20.5%
- inhibition at 10 µM (SK-MEL-28): < 1%
- inhibition at 10 µM (COLO 205): < 1%
- inhibition at 10 µM (HT29): 28.1%
- inhibition at 10 µM (HCT-15): 26%
- inhibition at 10 µM (HCT-116): 15.9%
- inhibition at 10 µM (NCI-H460): 1.35%
- inhibition at 10 µM (A549/ATCC): 4.93%
- inhibition at 10 µM (HOP-62): 20.8%
- inhibition at 10 µM (EXVX): 9.56%
- inhibition at 10 µM (OVCAR-3): < 1%
- inhibition at 10 µM (OVCAR-8): 11.6%
- inhibition at 10 µM (OVCAR-5): < 1%
- inhibition at 10 µM (IGROV1): < 1%
- inhibition at 10 µM (OVCAR-4): < 1%
- inhibition at 10 µM (NCI/ADR-RES): 4.12%
- inhibition at 10 µM (SK-OV-3): 11.8%
- inhibition at 10 µM (CAKI-1): 9.21%
- inhibition at 10 µM (A498): < 1%
- inhibition at 10 µM (SN12C): 13.9%
- inhibition at 10 µM (RXF 393): 4.3%
- inhibition at 10 µM (UO-31): 26.8%
- inhibition at 10 µM (ACHN): 4.08%
- inhibition at 10 µM (HS 578 T): 18.9%
- inhibition at 10 µM (T-47D): 34.7%
- inhibition at 10 µM (MCF7): 23.9%
- inhibition at 10 µM (MDA-MB-468): 3.28%
- inhibition at 10 µM (BT-549): 5.9%
- inhibition at 10 µM (MDA-MB-231/ATCC): 16.8%
- inhibition at 10 µM (NCI-H226): 13.1%
- inhibition at 10 µM (NCI-H23): 4.61%
- inhibition at 10 µM (NCI-522): 17.7%
- inhibition at 10 µM (NCI-H322M): < 1%
- inhibition at 10 µM (M14): < 1%
- inhibition at 10 µM (LOX IMVI): 11.7%
- inhibition at 10 µM (UACC-62): 12.4%

Source: publication PMC7162861, “Synthesis, cytotoxicity, pharmacokinetic profile, binding with DNA and BSA of new imidazo[1,2-a]pyrazine-benzo[d]imidazol-5-yl hybrids” (Scientific Reports, 2020)
